Results published in ChEMBL document CHEMBL6121031, “Optimizing Linezolid: Transforming It into a Selective MAO-B Inhibitor via a Toxicity-to-Activity Optimization Approach” (ACS Med Chem Lett, 2025).

What was measured:
[1] = target: T1, Amine oxidase [flavin-containing] A (Homo sapiens, UniProt P21397); test: Inhibition of recombinant human MAO-A using kynuramine as substrate incubated for 15 mins by absorbance based assay
T1 sequence (P21397 whole entry): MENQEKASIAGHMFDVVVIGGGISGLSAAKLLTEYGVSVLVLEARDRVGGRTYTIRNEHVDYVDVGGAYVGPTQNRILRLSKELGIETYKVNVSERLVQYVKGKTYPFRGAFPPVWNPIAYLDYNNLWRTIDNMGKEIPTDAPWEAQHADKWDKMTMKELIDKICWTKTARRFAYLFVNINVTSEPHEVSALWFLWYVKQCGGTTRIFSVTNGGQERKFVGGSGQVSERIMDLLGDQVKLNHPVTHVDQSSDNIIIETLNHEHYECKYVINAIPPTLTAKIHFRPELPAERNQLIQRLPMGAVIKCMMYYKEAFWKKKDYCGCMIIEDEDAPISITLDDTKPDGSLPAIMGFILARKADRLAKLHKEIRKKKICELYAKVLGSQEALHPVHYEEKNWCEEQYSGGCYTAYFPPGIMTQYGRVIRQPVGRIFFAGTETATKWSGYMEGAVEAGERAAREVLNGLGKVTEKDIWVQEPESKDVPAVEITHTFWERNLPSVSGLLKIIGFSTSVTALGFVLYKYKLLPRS

[2] = target: T2, Amine oxidase [flavin-containing] B (Homo sapiens, UniProt P27338)
T2 sequence (P27338 whole entry): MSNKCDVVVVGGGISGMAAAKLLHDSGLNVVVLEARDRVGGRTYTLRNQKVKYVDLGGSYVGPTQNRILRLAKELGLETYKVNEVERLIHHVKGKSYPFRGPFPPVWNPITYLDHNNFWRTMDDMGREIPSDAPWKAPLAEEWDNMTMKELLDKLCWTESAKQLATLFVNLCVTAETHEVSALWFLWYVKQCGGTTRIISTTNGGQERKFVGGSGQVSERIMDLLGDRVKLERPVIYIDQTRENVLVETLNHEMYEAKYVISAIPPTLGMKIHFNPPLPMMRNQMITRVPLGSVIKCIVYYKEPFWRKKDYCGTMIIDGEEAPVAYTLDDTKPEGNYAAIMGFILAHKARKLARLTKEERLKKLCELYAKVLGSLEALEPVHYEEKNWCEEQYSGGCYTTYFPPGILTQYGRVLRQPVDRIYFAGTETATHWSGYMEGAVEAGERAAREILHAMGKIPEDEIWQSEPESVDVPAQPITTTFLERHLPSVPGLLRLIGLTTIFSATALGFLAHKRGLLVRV

[3] = system: Mycobacterium tuberculosis; test: Antimycobacterial activity against Mycobacterium tuberculosis H37Rv measured after 7 days by MABA assay; type: functional; settings: 168 h, time 7 day
[4] = target: T2, Amine oxidase [flavin-containing] B; settings: 0.5 h
[5] = Cytotoxicity against human THP-1 cells incubated for 3 days by Cell Titer-Glo Luminescent Cell Viability Assay; type: toxicity, cell-based
[6] = target: T2, Amine oxidase [flavin-containing] B; test: Reversible competitive inhibition of human MAO-B assessed as residual activity before dialysis at 0.068 uM incubated for 30 mins relative to control; settings: 0.5 h, read-out: Activity
[7] = target: T2, Amine oxidase [flavin-containing] B; test: Reversible competitive inhibition of human MAO-B assessed as residual activity after dialysis at 0.068 uM incubated for 30 mins relative to control; settings: 0.5 h, read-out: Activity
[8] = target: T2, Amine oxidase [flavin-containing] B; test: Potency index, ratio of Pargyline IC50 to test compound IC50 for inhibition of recombinant human MAO-B using benzylamine as substrate incubated for 15 mins by absorbance based assay; settings: 0.25 h
[9] = target: T2, Amine oxidase [flavin-containing] B; test: Potency index, ratio of Clorgyline IC50 to test compound IC50 for inhibition of recombinant human MAO-B using benzylamine as substrate incubated for 15 mins by absorbance based assay; settings: 0.25 h

Structure (SMILES)	IC50 [1] [µM]	IC50 [2] [µM]	MIC [3] [mg/L]	activity at 0.028 µM [4] [%]	IC50 at 3 days [5] [mg/L]	activity at 0.068 µM [6] [%]	activity at 0.068 µM [7] [%]	Ratio IC50 [8]	Ratio IC50 [9]
O=C(Nc1nnc(-c2ccc(N3CCSCC3)c(F)c2)s1)C1CC1	> 40	0.1	> 25						
O=S(=O)(Nc1nnc(-c2ccc(N3CCSCC3)c(F)c2)s1)C1CC1	26	0.05	> 25						
C#CCN(C)Cc1ccccc1 [PARGYLINE]				34					
CC(=O)Nc1nnc(-c2ccc(N3CCCC3)c(F)c2)s1	13.2	0.17	> 25						
CCCCS(=O)(=O)Nc1nnc(-c2ccc(N3CCSCC3)c(F)c2)s1	21.5	0.05	> 25						
CC(=O)Nc1nnc(-c2ccc(N3CCSCC3)c(F)c2)s1	8.96	0.07	> 25		> 300				
CS(=O)(=O)Nc1nnc(-c2ccc(N3CCSCC3)c(F)c2)s1	18.4	0.04	> 25						
CC(=O)Nc1nnc(-c2ccc(N3CCOCC3)c(F)c2)s1	> 40	1.02	> 25						
CCS(=O)(=O)Nc1nnc(-c2ccc(N3CCSCC3)c(F)c2)s1	15.8	0.03	> 25		> 300	35	73.5	4	54
